# Assay results published in paper PMC5840146, “Structure-Activity Relationship Analysis of 3-Phenylcoumarin-Based Monoamine Oxidase B Inhibitors” (Frontiers in Chemistry, 2018).
# Assays:
# MAO-A = molecular target: T1, MAO-A (Homo sapiens, UniProt P21397); test: continuous spectrophotometric MAO-A inhibition assay; type: biochemical; details: for MAO-A inhibition %: 100 µM, 1h
# T1 construct: purchased Sigma-Aldrich
# T1 sequence (P21397 1-527): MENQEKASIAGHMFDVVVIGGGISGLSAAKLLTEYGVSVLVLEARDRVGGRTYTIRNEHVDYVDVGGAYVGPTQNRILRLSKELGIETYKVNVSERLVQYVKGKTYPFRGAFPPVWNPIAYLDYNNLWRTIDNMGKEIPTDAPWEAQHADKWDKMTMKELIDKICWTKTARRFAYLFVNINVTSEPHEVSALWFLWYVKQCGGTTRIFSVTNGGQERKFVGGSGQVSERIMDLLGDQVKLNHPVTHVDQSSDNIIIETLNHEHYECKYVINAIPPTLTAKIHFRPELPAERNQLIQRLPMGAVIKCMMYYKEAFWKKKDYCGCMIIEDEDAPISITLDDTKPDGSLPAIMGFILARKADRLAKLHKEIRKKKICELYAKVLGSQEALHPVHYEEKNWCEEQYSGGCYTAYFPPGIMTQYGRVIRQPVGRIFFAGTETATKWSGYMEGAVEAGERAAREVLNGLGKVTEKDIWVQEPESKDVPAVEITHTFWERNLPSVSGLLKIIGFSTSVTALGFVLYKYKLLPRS
# Description: Both monoamine oxidase A (MAO-A) and B (MAO-B) protein and the reagents for the chromogenic solution of vanillic acid (4-hydroxy-3-methoxylbenzoic acid, 97% purity), 4-aminoantipyrine (reagent grade), horseradish peroxidase and the substrate tyramine hydrochloride (minimum 99% purity) as well as the potassium phosphate buffer, which was prepared using potassium phosphate dibasic trihydrate (≥99% ReagentPlus™) and potassium phosphate monobasic (minimum 98% purity, molecular biology tested), were purchased from Sigma-Aldrich (St. Louis, MO, USA) for the spectrophotometric assay.
# The protocol for continuous spectrophotometric assay (Holt et al., [1997]) was followed in the activity measurements. The assay was performed in 0.2 M potassium phosphate buffer pH 7.6 on 96-well plates (Nunc™ 96F microwell plate without a lid, Nunc A/S, Roskilde, DK) in 200 μl total volume. The chromogenic solution containing 1 mM vanillic acid, 500 μM 4-aminoantipyrine and 8 U/ml horseradish peroxidase in 0.2 M potassium phosphate buffer pH 7.6 was mixed anew for each measurement. 5 mM tyramine solution was used as the substrate. In order to determine the activity of both MAO-B and MAO-A, concentration series as duplicates were prepared. The protein was combined with the chromogenic solution and incubated 30 min at 37°C. The background signal was measured using multilabel reader (Victor^TM X4, 2030 Multilabel Reader, PerkinElmer, Waltham, MA, USA) at A490 before reaching the total 200 μl volume by adding 20 μl of tyramine to final concentration of 0.5 mM on the plate. As a result, the final concentration of the chromogenic solution on the plate was 250 μM vanillic acid, 125 μM 4-aminoantipyrine and 2 U/ml horseradish peroxide. After adding the substrate, the plates were measured 300 times every 15 s using 1 s exposure time. The device was set to 37°C for the duration of the experiment.
# The experiment conditions should produce absorbance change of ~0.35 (Holt et al., [1997]). […] The same wide panel of coumarin derivatives was additionally used to analyze the MAO-A inhibition at 100 μM (Table 1, Supplementary Table S1).
# The measured data was then fitted on a curve using non-linear regression with the equation for log[inhibitor] vs. response. The IC50 values were therefore determined based on the curve fit. The fitted curves are shown on –log scale in Supplementary Figures S1, S2.
# recombinant human HSD1 = molecular target: T2, recombinant human HSD1 (Homo sapiens, UniProt P14061); test: HSD1 inhibition by HPLC with tritium labeled estrone/estradiol; type: biochemical; details: 1 μM
# T2 construct: made in house; host or cells: Sf9 insect cells
# T2 sequence (P14061 1-328): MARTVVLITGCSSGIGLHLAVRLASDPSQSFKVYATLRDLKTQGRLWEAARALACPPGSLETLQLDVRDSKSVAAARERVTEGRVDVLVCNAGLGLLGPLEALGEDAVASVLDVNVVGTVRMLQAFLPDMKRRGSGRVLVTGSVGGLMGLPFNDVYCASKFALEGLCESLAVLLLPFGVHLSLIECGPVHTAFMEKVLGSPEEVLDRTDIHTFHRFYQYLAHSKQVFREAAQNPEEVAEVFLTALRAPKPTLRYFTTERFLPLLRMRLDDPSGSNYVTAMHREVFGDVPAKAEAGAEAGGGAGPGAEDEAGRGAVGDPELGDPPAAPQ
# ERα = molecular target: T3, ERα (Homo sapiens, UniProt P03372); test: PolarScreen ER Alpha Competitor Assay (fluorescence polarization); type: binding; details: for inhibition at 10 µM / ER inhibition %: 10 μM
# T3 construct: purchased Life Technologies
# T3 sequence (P03372 1-595): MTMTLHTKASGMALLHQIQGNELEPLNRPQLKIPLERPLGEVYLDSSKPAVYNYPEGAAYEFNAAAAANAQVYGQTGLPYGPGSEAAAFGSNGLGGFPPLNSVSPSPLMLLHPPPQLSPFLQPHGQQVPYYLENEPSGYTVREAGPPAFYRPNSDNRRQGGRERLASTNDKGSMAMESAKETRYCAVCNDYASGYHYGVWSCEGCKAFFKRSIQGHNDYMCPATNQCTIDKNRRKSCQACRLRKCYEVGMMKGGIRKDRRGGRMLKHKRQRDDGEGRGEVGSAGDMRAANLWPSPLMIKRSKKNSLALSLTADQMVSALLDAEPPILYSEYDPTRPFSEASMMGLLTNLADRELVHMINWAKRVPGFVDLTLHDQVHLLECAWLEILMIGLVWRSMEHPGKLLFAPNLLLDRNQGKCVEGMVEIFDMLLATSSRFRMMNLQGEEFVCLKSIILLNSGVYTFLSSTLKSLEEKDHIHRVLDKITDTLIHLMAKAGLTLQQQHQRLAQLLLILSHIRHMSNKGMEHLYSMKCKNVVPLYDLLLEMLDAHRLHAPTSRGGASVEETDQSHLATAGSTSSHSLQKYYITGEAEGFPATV
# Description: The pIC50 values for the derivatives (Table 1, Supplementary Table S1) were measured with green PolarScreen™ ER Alpha Competitor Assay (Life Technologies, CA, The United States of America) kit, following the manufacturer protocol as previously described (Niinivehmas et al., [2016]). The final concentration of the compounds ranged from 0.0007 to 10 000 nM in the dilution series which were performed as duplicates. The molecules were combined with 25 nM ERα and 4.5 nM fluormone in the assay buffer and placed on black low volume 384-well assay plate with NBS surface (Corning, NY, The United States of America). After mixing the assay plate, it was incubated for 2 h in RT. The fluorescence polarization was measured using excitation wave length 485 and emission wave length 535 with bandwidths of 25/20 nm on a 2104 EnVision® Multilabel Plate Reader which had EnVision Workstation version 1.7 (PerkinElmer, MA, The United States of America).
Compound,inhibition at 100 µM (MAO-A),inhibition at 1 µM (recombinant human HSD1),inhibition at 10 µM (ERα),ER activity (in words) (ERα),MAO-A inhibition % (MAO-A),HSD1 inhibition % (recombinant human HSD1),ER inhibition % (ERα)
"COc1ccc2oc(=O)c(-c3cc(F)c(F)cc3F)cc2c1 [derivative 15, 6-methoxy-3-(2,4,5-trifluorophenyl)-2H-chromen-2-one]",0%,12%,0%,,,,
"COc1ccc2oc(=O)c(-c3ccc(N(C)C)cc3)cc2c1 [derivative 18, 3-(4-(dimethylamino)phenyl)-6-methoxy-2H-chromen-2-one]",0%,1%,0%,,,,
"COc1cccc(-c2cc3cc(OC)ccc3oc2=O)c1 [derivative 8, 6-methoxy-3-(3-methoxyphenyl)-2H-chromen-2-one]",0%,0%,0%,,,,
"COc1ccc2oc(=O)c(-c3ccc(O)c(F)c3)cc2c1 [derivative 22, 3-(3-fluoro-4-hydroxyphenyl)-6-methoxy-2H-chromen-2-one]",0%,54%,55.4%,prominent,,,
"O=c1oc2ccc(O)cc2cc1-c1ccc(F)cc1 [derivative 24, 3-(4-fluorophenyl)-6-hydroxy-2H-chromen-2-one]",14.2%,20%,0%,,,,
CC(=O)Oc1ccc2cc(-c3ccc(F)cc3)c(=O)oc2c1 [derivative 28],,,,prominent,0.00%,0.30%,57.12%
"Cc1ccc2oc(=O)c(-c3ccc(C(F)(F)F)cc3)cc2c1 [derivative 5, 6-methyl-3-(4-(trifluoromethyl)phenyl)-2H-chromen-2-one]",0%,0%,1.08%,,,,
"Cc1ccc2oc(=O)c(-c3ccc(F)cc3)cc2c1 [derivative 23, 3-(4-fluorophenyl)-6-methyl-2H-chromen-2-one]",0%,12 to 33%,0%,,,11%,
"COc1ccc2oc(=O)c(-c3ccc(F)cc3)cc2c1 [derivative 21, 3-(4-fluorophenyl)-6-methoxy-2H-chromen-2-one]",0%,0%,0%,,,,
Cc1ccc(-c2cc3ccc(O)cc3oc2=O)cc1 [derivative 27],,,,prominent,43.83%,12.50%,70.96%
"COc1ccc2cc(-c3ccc(O)c(F)c3)c(=O)oc2c1 [derivative 20, 3-(3-fluoro-4-hydroxyphenyl)-7-methoxy-2H-chromen-2-one]",0%,46%,86.1%,prominent,,,
"COc1ccc2cc(-c3cc(F)c(F)cc3F)c(=O)oc2c1 [derivative 16, 7-methoxy-3-(2,4,5-trifluorophenyl)-2H-chromen-2-one]",,33%,8.8%,,,,
O=c1oc2ccccc2cc1-c1ccc(O)cc1 [derivative 29],,,,prominent,0.00%,5.40%,74.22%
"COc1cccc(-c2cc3ccccc3oc2=O)c1 [derivative 11, 3-(3-methoxyphenyl)-2H-chromen-2-one]",0%,4%,0.29%,,,,
COc1cccc(-c2cc3ccc(OC)cc3oc2=O)c1 [derivative 25],,,,,0.00%,3.50%,0.00%
"COc1ccc(-c2cc3ccc(O)cc3oc2=O)cc1 [derivative 12, 7-hydroxy-3-(4-methoxyphenyl)-2H-chromen-2-one]",24.6%,3%,91.3%,prominent,,,

# Further lines, results first:
inhibition at 100 µM (MAO-A),inhibition at 1 µM (recombinant human HSD1),inhibition at 10 µM (ERα),ER activity (in words) (ERα),MAO-A inhibition % (MAO-A),HSD1 inhibition % (recombinant human HSD1),ER inhibition % (ERα),Compound
,,,prominent,9.52%,,101.40%,O=c1oc2cc(O)ccc2cc1-c1ccccc1 [derivative 41]
,,,prominent,0.00%,48.20%,58.53%,O=c1oc2cc(O)ccc2cc1-c1ccc(O)cc1 [derivative 30]
,,,prominent,0.00%,83.90%,98.41%,O=c1oc2ccc(O)cc2cc1-c1ccc(O)cc1 [derivative 48]
,,,,4.14%,56.00%,0.00%,O=c1oc2ccccc2cc1-c1cccc(O)c1 [derivative 31]
,,,,3.66%,76.70%,0.00%,COc1ccc(-c2cc3cccc(O)c3oc2=O)cc1 [derivative 33]
,,,,8.11%,0.00%,0.00%,COc1ccc2oc(=O)c(-c3ccc(Oc4ccc(F)cc4)cc3)cc2c1 [derivative 46]
,,,,13.11%,49.10%,18.53%,O=c1oc2ccc(O)cc2cc1-c1cccc(O)c1 [derivative 38]
,,,prominent,12.56%,0.00%,100.63%,O=c1oc2cc(O)ccc2cc1-c1ccc(F)cc1 [derivative 39]
,,,,0.87%,3.80%,0.00%,COc1ccc(-c2cc3ccccc3oc2=O)cc1 [derivative 36]
